Assay results reported in ChEMBL document CHEMBL1201862, “PubChem BioAssay data set” (2004).
Activity calls are given as the source filed them.

Tests used:
[1] = target: Peroxisome proliferator-activated receptor gamma/Nuclear receptor coactivator 3 (Homo sapiens, UniProt P37231); assay type: functional;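 also: agonist potency for raising coactivator recruitment to the receptor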
[2] = target: Peroxisome proliferator-activated receptor gamma/Nuclear receptor coactivator 1 (Homo sapiens, UniProt P37231); assay type: functional;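 also: agonist potency as compounds enhance coactivator SRC-1 recruitment to PPARgamma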
Sequence of Peroxisome proliferator-activated receptor gamma/Nuclear receptor coactivator 1 (P37231 whole entry): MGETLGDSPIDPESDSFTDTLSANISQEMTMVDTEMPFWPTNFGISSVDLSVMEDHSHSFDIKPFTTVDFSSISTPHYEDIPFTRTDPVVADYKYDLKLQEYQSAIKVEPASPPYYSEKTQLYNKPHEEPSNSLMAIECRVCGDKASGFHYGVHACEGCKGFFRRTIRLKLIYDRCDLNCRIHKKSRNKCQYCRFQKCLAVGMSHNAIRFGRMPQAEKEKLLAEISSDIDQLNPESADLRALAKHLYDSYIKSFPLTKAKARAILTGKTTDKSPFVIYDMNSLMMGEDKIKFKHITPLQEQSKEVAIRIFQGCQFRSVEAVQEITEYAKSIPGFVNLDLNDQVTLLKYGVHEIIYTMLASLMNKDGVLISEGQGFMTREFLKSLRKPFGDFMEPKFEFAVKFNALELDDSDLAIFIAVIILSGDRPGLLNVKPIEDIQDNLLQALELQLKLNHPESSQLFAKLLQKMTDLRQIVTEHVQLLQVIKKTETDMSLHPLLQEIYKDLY
Sequence of Peroxisome proliferator-activated receptor gamma/Nuclear receptor coactivator 1 (Q15788 whole entry, further chain): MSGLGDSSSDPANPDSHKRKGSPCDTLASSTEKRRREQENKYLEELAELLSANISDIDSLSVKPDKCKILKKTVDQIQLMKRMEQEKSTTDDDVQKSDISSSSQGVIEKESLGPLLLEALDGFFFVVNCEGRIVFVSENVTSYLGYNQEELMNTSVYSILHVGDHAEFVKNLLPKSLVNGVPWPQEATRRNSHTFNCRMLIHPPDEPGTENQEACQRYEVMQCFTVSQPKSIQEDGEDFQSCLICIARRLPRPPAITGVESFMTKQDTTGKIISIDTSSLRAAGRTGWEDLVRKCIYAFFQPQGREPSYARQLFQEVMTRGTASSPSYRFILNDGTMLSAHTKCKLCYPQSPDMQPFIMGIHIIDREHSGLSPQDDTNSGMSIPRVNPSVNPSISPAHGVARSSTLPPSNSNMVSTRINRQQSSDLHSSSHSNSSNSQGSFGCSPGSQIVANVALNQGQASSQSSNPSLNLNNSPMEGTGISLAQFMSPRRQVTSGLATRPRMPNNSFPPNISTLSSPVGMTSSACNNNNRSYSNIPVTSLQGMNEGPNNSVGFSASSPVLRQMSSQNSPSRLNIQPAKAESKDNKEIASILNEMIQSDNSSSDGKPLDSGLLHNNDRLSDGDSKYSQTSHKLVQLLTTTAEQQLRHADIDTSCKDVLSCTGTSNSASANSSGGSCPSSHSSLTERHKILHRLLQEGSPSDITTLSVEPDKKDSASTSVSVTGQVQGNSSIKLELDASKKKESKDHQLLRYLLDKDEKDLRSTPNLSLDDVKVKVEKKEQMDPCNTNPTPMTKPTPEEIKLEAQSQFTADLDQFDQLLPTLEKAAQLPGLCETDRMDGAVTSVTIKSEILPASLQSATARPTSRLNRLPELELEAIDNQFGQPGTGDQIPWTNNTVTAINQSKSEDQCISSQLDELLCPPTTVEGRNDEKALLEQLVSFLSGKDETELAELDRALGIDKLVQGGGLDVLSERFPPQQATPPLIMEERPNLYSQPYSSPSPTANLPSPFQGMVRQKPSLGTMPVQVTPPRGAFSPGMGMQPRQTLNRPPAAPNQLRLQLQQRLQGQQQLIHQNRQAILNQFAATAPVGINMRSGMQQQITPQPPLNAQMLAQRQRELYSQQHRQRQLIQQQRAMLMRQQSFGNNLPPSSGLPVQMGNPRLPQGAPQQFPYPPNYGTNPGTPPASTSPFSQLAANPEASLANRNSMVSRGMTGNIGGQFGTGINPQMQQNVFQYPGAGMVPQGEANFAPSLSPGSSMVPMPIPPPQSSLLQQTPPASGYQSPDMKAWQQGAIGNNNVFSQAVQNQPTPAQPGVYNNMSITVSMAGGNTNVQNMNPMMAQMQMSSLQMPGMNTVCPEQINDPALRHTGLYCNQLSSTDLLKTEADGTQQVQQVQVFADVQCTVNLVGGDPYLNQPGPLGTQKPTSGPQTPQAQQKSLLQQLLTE

[3] = target: Peroxisome proliferator-activated receptor gamma/Nuclear receptor coactivator 2 (Homo sapiens, UniProt P37231); assay type: functional;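 also: agonist potency for raising coactivator recruitment to the receptor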
cells = assay type: functional
[4] = THP-1 cell cytotoxicity, dose response, cytotoxicity control for non-replicating M. tuberculosis project (AID 489025); assay type: functional
[5] = microbe, parasite or virus in culture; assay type: functional; conditions: Mycobacterium tuberculosis
[6] = Vero E6 cell cytotoxicity, dose response, cytotoxicity control for non-replicating M. tuberculosis project, secondary assay (AID 492998); assay type: functional, VeroE6; conditions: Vero C1008
[7] = growth suppression of beta-catenin-knockout colon cells, dose response, cell-based, HCT116, human colon tumor (AID 1045); assay type: functional;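 also: HCT116 colon tumor cells with beta catenin knocked out; cells exposed to compound for 60 hours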
[8] = growth suppression of PTEN-null colon cells, dose response, cell-based, HCT116 PTEN knockout (AID 1047); assay type: functional;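 also: HCT116 colon tumor cells with PTEN knocked out; cells exposed to compound for 60 hours before readout; potency for loss of cell viability measured by luminescence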
SUMO-activating enzyme = SUMO-activating enzyme (Homo sapiens, UniProt Q9UBT2); assay: SUMOylation inhibitor hit validation, confirmation, SUMOylation inhibitor project, biochemical, AlphaScreen (AID 2018); assay type: functional
Ion channel NompC = Ion channel NompC (Danio rerio, UniProt Q7T1G6); assay: Fluorescence counterscreen assay for TRPML3 agonists: dose response cell-based high-throughput screening assay to identify agonists of the transient receptor potential channel N1 (TRPN1). [Related pubchem assays: 1526, 1424, 1448 ]; assay type: functional
Mucolipin-3 = target: T1, Mucolipin-3 (Homo sapiens, UniProt Q8TDD5); assay: Dose response cell-based high-throughput screening assay for agonists of the transient receptor potential channel ML3 (TRPML3). [Related pubchem assays: 1526, 1424, 1448 ]; assay type: functional
T1 sequence (Q8TDD5 whole entry): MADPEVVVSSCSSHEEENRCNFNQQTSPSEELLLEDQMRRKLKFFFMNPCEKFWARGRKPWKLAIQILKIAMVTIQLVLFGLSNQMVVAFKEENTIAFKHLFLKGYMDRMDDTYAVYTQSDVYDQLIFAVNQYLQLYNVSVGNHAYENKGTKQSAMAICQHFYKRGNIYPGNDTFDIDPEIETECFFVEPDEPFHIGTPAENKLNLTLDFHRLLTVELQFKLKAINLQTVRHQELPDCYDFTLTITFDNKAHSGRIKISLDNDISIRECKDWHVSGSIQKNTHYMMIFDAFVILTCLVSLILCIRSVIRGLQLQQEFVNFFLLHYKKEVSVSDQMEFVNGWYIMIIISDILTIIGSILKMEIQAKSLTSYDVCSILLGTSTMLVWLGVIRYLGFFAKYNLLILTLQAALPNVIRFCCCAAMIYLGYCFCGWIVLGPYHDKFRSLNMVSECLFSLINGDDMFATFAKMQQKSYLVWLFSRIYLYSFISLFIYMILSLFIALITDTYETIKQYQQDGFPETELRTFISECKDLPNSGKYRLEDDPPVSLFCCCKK

Cytochrome P450 3A4 = Cytochrome P450 3A4 (Homo sapiens, UniProt P08684);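 also: CYP3A4 tested as one member of a cytochrome P450 panel screen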
Sequence of Cytochrome P450 3A4 (P08684 whole entry): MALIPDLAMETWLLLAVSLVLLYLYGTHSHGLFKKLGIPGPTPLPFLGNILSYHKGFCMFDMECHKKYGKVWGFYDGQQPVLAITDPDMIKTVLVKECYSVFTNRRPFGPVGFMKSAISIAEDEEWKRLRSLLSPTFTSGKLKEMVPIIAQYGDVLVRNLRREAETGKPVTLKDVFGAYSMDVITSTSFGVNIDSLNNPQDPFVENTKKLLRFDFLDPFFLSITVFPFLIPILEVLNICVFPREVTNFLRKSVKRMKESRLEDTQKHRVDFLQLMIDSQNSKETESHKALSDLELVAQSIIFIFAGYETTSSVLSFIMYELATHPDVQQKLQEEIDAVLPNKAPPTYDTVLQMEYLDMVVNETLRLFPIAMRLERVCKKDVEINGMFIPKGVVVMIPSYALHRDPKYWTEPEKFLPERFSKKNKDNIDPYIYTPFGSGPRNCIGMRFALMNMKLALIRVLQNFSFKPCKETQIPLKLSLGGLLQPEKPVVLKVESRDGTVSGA

Cytochrome P450 2C19 = Cytochrome P450 2C19 (Homo sapiens, UniProt P33261); assay: Cytochrome panel assay with activity outcomes. Panel member name: p450-cyp2c19 Compounds with AC50 equal or less than 10 uM are considered active; assay type: functional; conditions: read-out: AC50
Cytochrome P450 2C9 = Cytochrome P450 2C9 (Homo sapiens, UniProt P11712)
Sequence of Cytochrome P450 2C9 (P11712 whole entry): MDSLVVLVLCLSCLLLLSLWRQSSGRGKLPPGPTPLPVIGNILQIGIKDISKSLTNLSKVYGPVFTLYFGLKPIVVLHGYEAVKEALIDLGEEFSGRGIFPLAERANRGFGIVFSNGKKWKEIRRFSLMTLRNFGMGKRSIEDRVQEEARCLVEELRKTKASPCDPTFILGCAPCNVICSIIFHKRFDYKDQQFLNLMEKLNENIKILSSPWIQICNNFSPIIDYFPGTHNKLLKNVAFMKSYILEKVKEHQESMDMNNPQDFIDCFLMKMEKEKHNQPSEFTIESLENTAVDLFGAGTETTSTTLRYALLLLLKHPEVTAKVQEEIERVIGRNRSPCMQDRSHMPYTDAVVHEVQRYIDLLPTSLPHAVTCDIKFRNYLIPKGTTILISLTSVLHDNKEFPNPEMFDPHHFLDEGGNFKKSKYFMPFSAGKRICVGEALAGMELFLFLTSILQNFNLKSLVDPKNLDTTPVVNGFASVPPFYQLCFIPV

[9] = inhibitors of intracellular T. cruzi replication, confirmation, NIH3T3 host cells, beta-gal luminescence (AID 2044); assay type: functional, cell-based;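 also: intracellular parasites grown in NIH/3T3 mouse fibroblasts as host cells; luminescent beta-galactosidase reporter signal from transgenic T. cruzi replicating inside host cells; inhibitors lower the luminescence signal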
[10] = cytotoxicity toward NIH3T3 fibroblasts, dose response, counter-screen, cell-based, ATP luminescence, mouse fibroblasts (AID 2010); assay type: functional;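 also: cells exposed to compound for about 90 hours before reading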
[11] = tested on: Streptococcus sp. 'group A'; assay: growth inhibition of control SK(-) GAS strain, dose response, counter-screen for streptokinase expression inhibitor project, luminescence, kanamycin, BacTiterGlo, confirmation (AID 1900); assay type: functional, organism-based
HEK293 [12] = assay: NOD2 signaling inhibitors in MDP-stimulated cells, cell-based, uHTS, luminescence (AID 2001); assay type: functional; conditions: Homo sapiens
[13] = target: T2, Ubiquitin-conjugating enzyme E2 N (Homo sapiens, UniProt P61088); assay type: functional
T2 sequence (P61088 whole entry): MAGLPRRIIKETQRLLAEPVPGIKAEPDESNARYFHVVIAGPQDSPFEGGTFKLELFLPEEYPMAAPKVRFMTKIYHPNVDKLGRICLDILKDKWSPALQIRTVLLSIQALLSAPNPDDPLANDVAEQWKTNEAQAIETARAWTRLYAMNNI

HEK293 [14] = assay: cells; assay type: functional, cell-based; conditions: Homo sapiens
HEK293 [15] = assay: cells; assay type: functional, cell-based; conditions: Homo sapiens; remark: listed apart in the source
INS1 = assay: beta cell apoptosis inhibitors, cytokine rescue, dose response, luminescence, retest (AID 449756); assay type: functional, cell-based; conditions: Rattus norvegicus;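 also: cell death triggered by IL-1 beta plus TNF-alpha plus IFN-gamma mixture; protective hits raise ATP signal compared with cytokine alone wells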
Vero = assay: cells; assay type: functional; conditions: Chlorocebus sabaeus
BJ [16] = assay: cytotoxicity toward BJ-TERT fibroblasts, dose response, cell-based, RAS-independent, luminescence (AID 1933); assay type: functional; conditions: Homo sapiens
[17] = NIH-3T3 fibroblast cytotoxicity, dose response, cytotoxicity control, cell-based, fluorescence, Alamar Blue, secondary assay (AID 2327); assay type: functional;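 also: NIH-3T3 mouse fibroblasts cultured with fluconazole at 8 µg/mL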
[18] = cytotoxicity toward DRD oncogenic fibroblasts, dose response, cell-based, non-viral oncogenic, luminescence (AID 1934); assay type: functional; conditions: Homo sapiens
Streptococcus = assay: Group A Streptococcus viability loss, dose response, counter-screen for streptokinase expression inhibitor project, luminescence, BacTiterGlo (AID 1915); assay type: functional, organism-based;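 also: potency for reduction of bacterial viability or growth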
BJ [19] = assay: cytotoxicity toward BJ-TERT-LT-ST fibroblasts, dose response, cell-based, RAS-independent, luminescence (AID 1935); assay type: functional; conditions: Homo sapiens;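 also: BJ fibroblasts immortalized with TERT plus LT and ST oncogenes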
[20] = C. albicans growth with fluconazole, confirmation, fluorescence, retest (AID 2467); assay type: functional, cell-based
HEK293 [21] = assay: NOD1 signaling inhibitors, primary screen, cell-based, luminescence, uHTS (AID 1578); assay type: functional; conditions: Homo sapiens
BJ [22] = assay: cells; assay type: functional, cell-based; conditions: Homo sapiens
[23] = target: Induced myeloid leukemia cell differentiation protein Mcl-1 (Homo sapiens, UniProt Q07820); assay type: functional
Bcl-2-related protein A1 = target: T3, Bcl-2-related protein A1 (Mus musculus, UniProt Q07440); assay type: functional;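 also: confirmatory dose–response counterscreen on Bfl-1, used to check hits from a UBC13 polyubiquitin inhibitor campaign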
T3 sequence (Q07440 whole entry): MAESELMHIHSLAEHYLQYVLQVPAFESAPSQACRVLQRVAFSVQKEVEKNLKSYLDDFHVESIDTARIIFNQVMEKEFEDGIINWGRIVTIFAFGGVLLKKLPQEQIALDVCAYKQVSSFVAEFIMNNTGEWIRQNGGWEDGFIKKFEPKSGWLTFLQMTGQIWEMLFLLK

[24] = target: T2, Ubiquitin-conjugating enzyme E2 N; assay type: functional; remark: listed apart in the source

Sequence of Peroxisome proliferator-activated receptor gamma/Nuclear receptor coactivator 3 (P37231 whole entry): as the sequence (P37231 whole entry) above
Sequence of Peroxisome proliferator-activated receptor gamma/Nuclear receptor coactivator 3 (Q9Y6Q9 whole entry, further chain): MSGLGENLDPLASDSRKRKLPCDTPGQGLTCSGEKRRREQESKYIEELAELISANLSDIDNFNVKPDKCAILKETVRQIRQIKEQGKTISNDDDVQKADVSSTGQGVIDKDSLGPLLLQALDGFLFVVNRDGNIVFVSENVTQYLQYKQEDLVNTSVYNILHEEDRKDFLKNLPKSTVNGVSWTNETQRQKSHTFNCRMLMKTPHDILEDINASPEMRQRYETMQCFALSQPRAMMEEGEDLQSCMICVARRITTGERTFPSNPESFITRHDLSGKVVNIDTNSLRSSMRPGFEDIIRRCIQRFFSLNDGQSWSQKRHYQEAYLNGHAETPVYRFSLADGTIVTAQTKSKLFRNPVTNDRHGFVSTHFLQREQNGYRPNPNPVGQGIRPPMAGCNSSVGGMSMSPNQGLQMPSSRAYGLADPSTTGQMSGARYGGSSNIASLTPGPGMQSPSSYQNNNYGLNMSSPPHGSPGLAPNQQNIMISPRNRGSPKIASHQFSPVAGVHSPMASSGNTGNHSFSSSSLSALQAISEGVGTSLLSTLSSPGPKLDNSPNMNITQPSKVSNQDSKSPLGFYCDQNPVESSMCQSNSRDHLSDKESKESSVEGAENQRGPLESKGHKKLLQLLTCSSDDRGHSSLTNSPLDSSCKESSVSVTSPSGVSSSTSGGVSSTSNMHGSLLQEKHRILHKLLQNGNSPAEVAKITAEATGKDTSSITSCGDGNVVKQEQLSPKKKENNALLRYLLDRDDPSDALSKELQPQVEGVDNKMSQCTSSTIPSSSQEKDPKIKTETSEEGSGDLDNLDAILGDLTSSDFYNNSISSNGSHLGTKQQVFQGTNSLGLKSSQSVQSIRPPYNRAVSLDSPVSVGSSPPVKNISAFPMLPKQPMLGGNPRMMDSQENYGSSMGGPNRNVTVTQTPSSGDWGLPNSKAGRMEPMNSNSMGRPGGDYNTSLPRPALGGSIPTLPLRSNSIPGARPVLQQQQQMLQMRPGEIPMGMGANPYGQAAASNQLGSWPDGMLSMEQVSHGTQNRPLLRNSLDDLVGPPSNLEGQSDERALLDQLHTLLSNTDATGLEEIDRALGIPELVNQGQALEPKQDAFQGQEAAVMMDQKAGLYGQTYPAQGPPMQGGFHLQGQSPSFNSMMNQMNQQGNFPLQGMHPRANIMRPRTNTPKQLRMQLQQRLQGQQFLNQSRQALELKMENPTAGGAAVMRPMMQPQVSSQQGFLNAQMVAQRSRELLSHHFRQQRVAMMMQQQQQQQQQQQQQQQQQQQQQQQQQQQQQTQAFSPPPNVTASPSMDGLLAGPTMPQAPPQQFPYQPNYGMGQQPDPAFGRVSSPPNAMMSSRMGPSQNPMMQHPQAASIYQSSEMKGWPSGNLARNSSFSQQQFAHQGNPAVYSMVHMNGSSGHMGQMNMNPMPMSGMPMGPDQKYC

For Cc1ccc(-c2csc(NC(=O)c3cc([N+](=O)[O-])ccc3N3CCOCC3)n2)cc1, the EC50 [1] was > 79.4 µM (not active), the EC50 [2] was > 79.4 µM (not active) and the EC50 [3] was > 79.4 µM (not active).
For Oc1nc2ccccc2c2oc(CCl)nc12, the IC50 (cells) was 3.25 µM (active), the CC50 [4] was 20.1 µM (active) and the CC50 [5] was 12.9 µM (active). For the same molecule, the CC50 [6] was 7.46 µM (active).
With COC(=O)c1cn(NC(=O)c2cnccn2)c(=O)c2ccccc12 the IC50 (cells) was 9.07 µM (active), the CC50 [4] was 24.2 µM (active) and the EC50 [7] was 8.3 µM (active). For the same molecule, the CC50 [6] was 16.2 µM (active) and the EC50 [8] was 9.08 µM (active).
For COc1ccc(/C=C(\C#N)C(=O)OCC(=O)NCc2ccccc2Cl)cc1, the IC50 (SUMO-activating enzyme) was 42.3 µM (active).
For CCc1nnc(NC(=O)COc2ccc(N(C)S(=O)(=O)c3ccc(C)cc3)cc2)s1, the EC50 (Ion channel NompC) was > 29.9 µM (not active) and the EC50 (Mucolipin-3) was 3.27 µM (active).
In the case of COc1ccc(-c2nnc(-c3ccc(OCC(C)C)cc3)o2)cc1, the AC50 (Cytochrome P450 3A4) is reported as “inconclusive”, the AC50 (Cytochrome P450 2C19) is reported as 7.08 µM (inconclusive) and the AC50 (Cytochrome P450 2C9) is reported as 20 µM (inconclusive).
For Cn1c(=O)c(Oc2cc(Cl)cc(Cl)c2)nc2ccccc21, the EC50 [1] was 28.8 µM (not active), the EC50 [2] was 24.5 µM (not active) and the EC50 [3] was 21.1 µM (not active).
In the case of Cc1ccccc1OCC(=O)Nc1cc(S(=O)(=O)N2CCCCC2)ccc1N1CCN(C)CC1, the EC50 [9] is reported as 0.634 µM (active), the EC50 (Ion channel NompC) is reported as > 29.9 µM (not active) and the EC50 (Mucolipin-3) is reported as 5.43 µM (active). The EC50 [10] was > 60 µM (not active).
For Nc1nc(N)c2cc(Sc3ccc4ccccc4c3)ccc2n1, the EC50 [11] was 0.148 µM (active), the IC50 (HEK293 [12]) was 5.21 µM (active) and the IC50 [13] was > 20 µM (inactive). For the same molecule, the IC50 (HEK293 [14]) was > 20 µM (inactive), the IC50 (HEK293 [15]) was 11.5 µM (active) and the AC50 (INS1) was 7.99 µM (active). The CC50 (Vero) was 0.8 µM (active), the EC50 (BJ [16]) was 9.21 µM (active) and the EC50 [17] was 5.4 µM (inconclusive). The EC50 [18] was 2.96 µM (active), the EC50 (Streptococcus) was 2.83 µM (active) and the EC50 (BJ [19]) was > 150 µM (inconclusive). The EC50 [20] was 1.38 µM (active), the EC50 (HEK293 [21]) was > 20 µM (inactive) and the EC50 (BJ [22]) was 2.06 µM (active). For the same molecule, the IC50 [23] was 3.67 µM (active).
For O=C(NCCCN1CCCC1)c1ccc(Cn2c(=S)[nH]c3ccc(Br)cc3c2=O)cc1, the IC50 (Bcl-2-related protein A1) was > 20 µM (inactive), the IC50 [13] was 16.7 µM (active) and the IC50 [24] was > 20 µM (inactive).
With Cc1ccc(NC(=O)CC(=O)c2ccc([N+](=O)[O-])cc2)cc1S(=O)(=O)Nc1cccc(Cl)c1 the IC50 (HEK293 [12]) was 9.19 µM (active), the IC50 (HEK293 [14]) was > 20 µM (inactive) and the IC50 (HEK293 [15]) was 7.05 µM (active). For the same molecule, the EC50 (HEK293 [21]) was 9.53 µM (active).
With CCOC(=O)C1Cc2c([nH]c3ccccc23)CN1.Cl (stereo unspecified) the AC50 (Cytochrome P450 3A4) was “inconclusive” and the AC50 (Cytochrome P450 2C9) was 17.8 µM (inconclusive).
In the case of Cc1ccc(Sc2ccc(/C=C3/C(=O)NN(c4ccccc4)C3=O)o2)cc1, the IC50 (cells) is reported as 18.7 µM (active), the IC50 (HEK293 [12]) is reported as 18.2 µM (inactive) and the CC50 [5] is reported as > 40 µM (active). For the same molecule, the IC50 (HEK293 [14]) was > 20 µM (inactive), the IC50 (HEK293 [15]) was 7.56 µM (active) and the EC50 (HEK293 [21]) was > 20 µM (inactive).
